One assay concerns Plasmodium yoelii. Kind of assay: Antimalarial activity against sporozoite stage of Plasmodium yoelii assessed as invasion of human HepG2 cells expressing CD81 incubated for 2 hrs prior to inoculation measured after 1 hr by immunofluorescence assay in presence of penicillin/streptomycin. It counts as functional, organism-based.
For a further assay, the system named is Plasmodium berghei. Description: Antimalarial activity against gametocytic stage of Plasmodium berghei infected in blood assessed as inhibition of ookinete formation at 10 uM after 24 hrs by Giemsa staining-based microscopic analysis relative to control. The assay is classed as functional.

Take `COc1cc(N[C@H](C)CCCN)c2nccc(C)c2c1Oc1ccc(Cl)c(Cl)c1`: the IC50 in the assay with Plasmodium yoelii is below 1000 nM.
Turning to `C=C[C@H]1CN2CC[C@H]1C[C@H]2[C@H](O)c1ccnc2ccc(OC)cc12` [QUININE], the inhibition at 10 µM in the assay with Plasmodium berghei is below 50%.
Regarding `CO[C@H]1O[C@@H]2O[C@@]3(C)CC[C@H]4[C@H](C)CC[C@@H]([C@H]1C)[C@@]24OO3` [ARTEMETHER], in the assay on Plasmodium yoelii, the half-maximal inhibitory concentration (IC50) was below 1000 nM.
For the molecule `C[C@H]1[C@@H](O)O[C@@H]2O[C@@]3(C)CC[C@H]4[C@H](C)CC[C@@H]1[C@@]24OO3` [ARTENIMOL], in the assay on Plasmodium yoelii, the IC50 was below 1000 nM.
`COc1ccc2nc3cc(Cl)ccc3c(Nc3cc(CN4CCCC4)c(O)c(CN4CCCC4)c3)c2n1` [PYRONARIDINE]: the inhibition at 10 µM in the assay on Plasmodium berghei is below 50%. For the same molecule, the IC50 with Plasmodium yoelii is below 1000 nM.
On the same counts, the results for `O=C1C(O)=C([C@H]2CC[C@H](c3ccc(Cl)cc3)CC2)C(=O)c2ccccc21` [ATOVAQUONE] are below 50% and below 1000 nM.
With `CCc1nc(N)nc(N)c1OCCCOc1ccccc1CCC(=O)O`, the concentration for half-maximal inhibition (IC50) in the assay with Plasmodium yoelii is below 1000 nM.
On the same count and under the same terms, for `C[C@H]1[C@H](OC(=O)CCC(=O)O)O[C@@H]2O[C@@]3(C)CC[C@H]4[C@H](C)CC[C@@H]1[C@@]24OO3` [ARTESUNATE] the value was below 1000 nM.
On the same count and under the same terms, with `COc1cc(C)c2c(Oc3cccc(C(F)(F)F)c3)c(OC)cc(NC(C)CCCN)c2n1` (configuration not stated) [TAFENOQUINE] the figure was below 1000 nM.
With `CN(C)c1ccc2nc3ccc(N(C)C)cc3[s+]c2c1` [METHYLENE BLUE ANHYDROUS], in the assay on Plasmodium berghei, the inhibition at 10 µM was below 50%. The IC50 with Plasmodium yoelii was below 1000 nM.
Consider `COc1cc(NC(C)CCCN)c2ncccc2c1` (configuration not stated) [PRIMAQUINE], for which, in the assay on Plasmodium berghei, the inhibition at 10 µM is below 50%. Also, the half-inhibitory concentration (IC50) in the assay with Plasmodium yoelii was below 1000 nM.
On the same counts, the results for `CCc1nc(N)nc(N)c1-c1ccc(Cl)cc1` [PYRIMETHAMINE] are below 50% and below 1000 nM.
